From the kinase profiling compilation of Christmann-Franck et al. (2016)
One block for each compound: values may come before it.

Legend:
Assay in all cases: radiometric filter-binding kinase assay
EIF2AK3 (human) = EIF2AK3 (human) (UniProt Q9NZJ5)
STK16 (human) = STK16 (human) (UniProt O75716)
IRAK1 (human) = IRAK1 (human) (UniProt P51617)
STK33 (human) = STK33 (human) (UniProt Q9BYT3)
TESK1 (human) = TESK1 (human) (UniProt Q15569)
TTBK1 (human) = TTBK1 (human) (UniProt Q5TCY1)
TEK (human) = TEK (human) (UniProt Q02763)
TEK (human), sequence (Q02763 whole entry, looked up): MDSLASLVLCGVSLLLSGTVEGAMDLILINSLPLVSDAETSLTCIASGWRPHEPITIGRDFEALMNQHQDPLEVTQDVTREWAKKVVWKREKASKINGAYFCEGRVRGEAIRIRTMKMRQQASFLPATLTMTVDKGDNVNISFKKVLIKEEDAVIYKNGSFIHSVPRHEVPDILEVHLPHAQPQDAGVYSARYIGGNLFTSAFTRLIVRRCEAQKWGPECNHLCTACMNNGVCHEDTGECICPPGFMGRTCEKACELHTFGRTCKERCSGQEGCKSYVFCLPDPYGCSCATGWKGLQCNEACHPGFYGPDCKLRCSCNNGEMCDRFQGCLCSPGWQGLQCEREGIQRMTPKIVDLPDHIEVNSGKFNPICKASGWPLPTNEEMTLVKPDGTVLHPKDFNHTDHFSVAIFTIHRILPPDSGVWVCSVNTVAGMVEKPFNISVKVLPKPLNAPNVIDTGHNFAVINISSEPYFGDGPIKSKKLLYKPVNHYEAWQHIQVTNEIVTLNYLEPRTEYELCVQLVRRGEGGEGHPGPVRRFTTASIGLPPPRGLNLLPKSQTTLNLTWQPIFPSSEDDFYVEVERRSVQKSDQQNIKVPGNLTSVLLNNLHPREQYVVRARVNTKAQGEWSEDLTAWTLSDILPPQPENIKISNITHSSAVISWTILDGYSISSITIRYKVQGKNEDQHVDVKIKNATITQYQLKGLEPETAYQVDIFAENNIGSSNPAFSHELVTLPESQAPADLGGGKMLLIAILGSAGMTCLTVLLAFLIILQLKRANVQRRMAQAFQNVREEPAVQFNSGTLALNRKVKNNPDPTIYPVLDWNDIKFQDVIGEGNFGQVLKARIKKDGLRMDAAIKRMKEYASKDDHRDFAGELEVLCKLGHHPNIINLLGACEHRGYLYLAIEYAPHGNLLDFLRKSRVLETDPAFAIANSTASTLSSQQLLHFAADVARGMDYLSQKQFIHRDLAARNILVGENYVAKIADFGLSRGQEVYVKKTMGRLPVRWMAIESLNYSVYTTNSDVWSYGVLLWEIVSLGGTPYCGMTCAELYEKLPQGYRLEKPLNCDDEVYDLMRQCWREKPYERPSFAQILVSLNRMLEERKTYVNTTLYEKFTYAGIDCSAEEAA

PTK6 (human) = PTK6 (human) (UniProt Q13882)
[1] = test system: OXSR1 (human), O95747 [T185E]
ABL1 (human) = ABL1 (human) (UniProt P00519)
ABL1 (human), sequence (P00519 whole entry, looked up): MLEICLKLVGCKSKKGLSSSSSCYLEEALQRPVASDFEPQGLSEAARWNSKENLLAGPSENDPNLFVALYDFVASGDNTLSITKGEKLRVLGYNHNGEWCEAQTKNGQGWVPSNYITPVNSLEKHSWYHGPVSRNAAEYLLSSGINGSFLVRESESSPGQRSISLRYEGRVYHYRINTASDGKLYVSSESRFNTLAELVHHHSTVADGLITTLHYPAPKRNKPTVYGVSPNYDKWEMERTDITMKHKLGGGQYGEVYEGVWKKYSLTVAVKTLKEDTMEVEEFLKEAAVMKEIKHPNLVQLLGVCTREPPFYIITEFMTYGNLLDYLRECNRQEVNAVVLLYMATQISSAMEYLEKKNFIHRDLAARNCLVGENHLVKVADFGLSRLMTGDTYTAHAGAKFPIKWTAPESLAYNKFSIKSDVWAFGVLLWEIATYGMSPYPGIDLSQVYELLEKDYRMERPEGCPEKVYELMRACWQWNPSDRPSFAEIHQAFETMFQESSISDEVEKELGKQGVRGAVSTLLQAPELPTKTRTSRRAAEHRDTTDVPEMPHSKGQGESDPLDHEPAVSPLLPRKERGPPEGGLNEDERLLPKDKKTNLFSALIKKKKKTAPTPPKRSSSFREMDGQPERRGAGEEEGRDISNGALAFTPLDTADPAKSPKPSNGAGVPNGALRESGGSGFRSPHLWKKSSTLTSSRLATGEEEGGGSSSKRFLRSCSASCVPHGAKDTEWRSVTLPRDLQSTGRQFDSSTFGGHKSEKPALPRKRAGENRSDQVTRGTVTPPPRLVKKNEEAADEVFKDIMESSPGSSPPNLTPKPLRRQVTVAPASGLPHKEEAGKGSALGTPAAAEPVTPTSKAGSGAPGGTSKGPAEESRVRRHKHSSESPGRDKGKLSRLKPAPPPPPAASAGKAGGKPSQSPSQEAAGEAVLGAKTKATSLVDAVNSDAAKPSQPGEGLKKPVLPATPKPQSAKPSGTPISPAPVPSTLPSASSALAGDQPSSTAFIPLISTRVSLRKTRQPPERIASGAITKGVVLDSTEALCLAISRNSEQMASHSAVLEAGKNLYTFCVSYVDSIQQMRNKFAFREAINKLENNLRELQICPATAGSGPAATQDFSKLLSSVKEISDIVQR

PRKCG (human) = PRKCG (human) (UniProt P05129)
ZAP70 (human) = ZAP70 (human) (UniProt P43403)
TSSK1B (human) = TSSK1B (human) (UniProt Q9BXA7)
TLK1 (human) = TLK1 (human) (UniProt Q9UKI8)
TLK1 (human), sequence (Q9UKI8 whole entry, looked up): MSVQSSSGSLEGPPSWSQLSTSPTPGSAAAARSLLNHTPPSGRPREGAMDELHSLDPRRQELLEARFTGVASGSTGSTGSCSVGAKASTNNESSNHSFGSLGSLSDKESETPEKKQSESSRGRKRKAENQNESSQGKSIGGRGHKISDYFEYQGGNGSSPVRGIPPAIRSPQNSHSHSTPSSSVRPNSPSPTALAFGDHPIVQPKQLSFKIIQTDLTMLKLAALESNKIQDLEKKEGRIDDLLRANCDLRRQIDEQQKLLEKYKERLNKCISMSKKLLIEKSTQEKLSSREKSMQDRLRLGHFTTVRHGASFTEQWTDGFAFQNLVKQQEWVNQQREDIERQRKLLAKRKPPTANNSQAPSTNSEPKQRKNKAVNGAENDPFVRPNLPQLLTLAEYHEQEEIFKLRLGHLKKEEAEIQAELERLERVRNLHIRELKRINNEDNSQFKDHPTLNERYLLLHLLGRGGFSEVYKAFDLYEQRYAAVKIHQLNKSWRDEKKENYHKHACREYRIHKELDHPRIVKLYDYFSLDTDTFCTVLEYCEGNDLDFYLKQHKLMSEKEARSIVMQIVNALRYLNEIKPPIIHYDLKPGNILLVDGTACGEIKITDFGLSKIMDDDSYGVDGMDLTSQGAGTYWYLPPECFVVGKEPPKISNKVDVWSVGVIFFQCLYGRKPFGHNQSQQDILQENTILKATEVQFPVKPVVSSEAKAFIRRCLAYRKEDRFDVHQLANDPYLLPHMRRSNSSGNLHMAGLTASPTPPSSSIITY

MAPK11 (human) = MAPK11 (human) (UniProt Q15759)
MAPK11 (human), sequence (Q15759 whole entry, looked up): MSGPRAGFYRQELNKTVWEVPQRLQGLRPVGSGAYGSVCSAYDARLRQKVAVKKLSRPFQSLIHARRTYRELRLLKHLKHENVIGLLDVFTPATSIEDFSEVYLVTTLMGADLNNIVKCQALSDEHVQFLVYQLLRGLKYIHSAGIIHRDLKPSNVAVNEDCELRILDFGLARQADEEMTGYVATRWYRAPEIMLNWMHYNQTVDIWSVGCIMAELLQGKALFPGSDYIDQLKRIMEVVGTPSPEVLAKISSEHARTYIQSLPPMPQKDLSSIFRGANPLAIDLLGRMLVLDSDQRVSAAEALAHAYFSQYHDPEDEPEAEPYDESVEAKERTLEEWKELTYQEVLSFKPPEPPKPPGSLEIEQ

PAK6 (human) = PAK6 (human) (UniProt Q9NQU5)

STK33 (human), sequence (Q9BYT3 whole entry, looked up): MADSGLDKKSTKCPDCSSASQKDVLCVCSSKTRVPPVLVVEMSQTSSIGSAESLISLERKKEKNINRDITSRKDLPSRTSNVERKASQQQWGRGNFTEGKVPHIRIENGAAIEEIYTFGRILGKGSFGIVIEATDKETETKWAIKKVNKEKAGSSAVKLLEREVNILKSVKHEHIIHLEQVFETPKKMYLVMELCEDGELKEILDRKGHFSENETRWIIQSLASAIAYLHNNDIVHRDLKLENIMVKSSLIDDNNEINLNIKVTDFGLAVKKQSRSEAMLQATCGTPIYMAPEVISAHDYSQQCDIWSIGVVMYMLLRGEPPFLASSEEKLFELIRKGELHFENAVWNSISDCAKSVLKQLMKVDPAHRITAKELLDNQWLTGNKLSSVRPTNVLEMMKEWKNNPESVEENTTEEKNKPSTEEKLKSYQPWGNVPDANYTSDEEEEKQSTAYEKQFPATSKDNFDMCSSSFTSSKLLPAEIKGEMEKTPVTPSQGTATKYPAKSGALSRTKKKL
EIF2AK3 (human), sequence (Q9NZJ5 whole entry, looked up): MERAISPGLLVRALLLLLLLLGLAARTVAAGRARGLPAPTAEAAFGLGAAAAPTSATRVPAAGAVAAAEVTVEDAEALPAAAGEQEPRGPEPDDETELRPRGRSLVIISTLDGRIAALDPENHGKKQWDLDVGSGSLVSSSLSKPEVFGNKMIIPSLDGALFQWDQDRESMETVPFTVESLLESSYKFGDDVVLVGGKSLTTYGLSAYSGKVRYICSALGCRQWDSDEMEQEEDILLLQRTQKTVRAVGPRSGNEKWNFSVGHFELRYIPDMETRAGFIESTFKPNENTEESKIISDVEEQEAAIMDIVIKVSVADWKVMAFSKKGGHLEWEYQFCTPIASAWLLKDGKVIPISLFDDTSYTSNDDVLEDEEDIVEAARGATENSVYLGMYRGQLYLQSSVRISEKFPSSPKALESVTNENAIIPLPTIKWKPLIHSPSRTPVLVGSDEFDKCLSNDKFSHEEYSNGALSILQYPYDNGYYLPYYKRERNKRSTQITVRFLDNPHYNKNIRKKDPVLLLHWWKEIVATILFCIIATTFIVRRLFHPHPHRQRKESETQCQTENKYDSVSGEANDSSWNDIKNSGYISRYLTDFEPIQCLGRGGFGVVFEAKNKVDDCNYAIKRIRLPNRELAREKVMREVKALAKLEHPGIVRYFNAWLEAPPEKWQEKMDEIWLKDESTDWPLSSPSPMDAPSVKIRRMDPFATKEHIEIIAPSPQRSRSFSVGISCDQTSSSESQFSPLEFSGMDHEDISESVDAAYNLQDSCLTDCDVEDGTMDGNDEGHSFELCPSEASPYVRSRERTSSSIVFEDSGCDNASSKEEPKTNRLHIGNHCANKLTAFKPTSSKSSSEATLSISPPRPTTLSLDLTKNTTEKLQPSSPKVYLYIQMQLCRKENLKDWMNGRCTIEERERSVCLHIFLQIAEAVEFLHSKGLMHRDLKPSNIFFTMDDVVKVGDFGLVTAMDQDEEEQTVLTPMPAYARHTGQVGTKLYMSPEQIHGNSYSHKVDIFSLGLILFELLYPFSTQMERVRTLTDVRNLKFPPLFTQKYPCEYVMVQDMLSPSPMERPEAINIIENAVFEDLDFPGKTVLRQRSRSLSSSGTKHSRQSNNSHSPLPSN

residual activity (EIF2AK3 (human); compound 0.1 µM): 110%
residual activity (EIF2AK3 (human); compound 1.0 µM): 81%
residual activity (EIF2AK3 (human); compound 10.0 µM): 28%
residual activity (STK16 (human); compound 0.1 µM): 99%
residual activity (STK16 (human); compound 1.0 µM): 117%
residual activity (STK16 (human); compound 10.0 µM): 104%
residual activity (IRAK1 (human); compound 0.1 µM): 108%
residual activity (IRAK1 (human); compound 1.0 µM): 115%
residual activity (STK33 (human); compound 0.1 µM): 97%
residual activity (STK33 (human); compound 1.0 µM): 84%
residual activity (TESK1 (human); compound 0.1 µM): 69%
residual activity (TESK1 (human); compound 1.0 µM): 71%
residual activity (TESK1 (human); compound 10.0 µM): 38%
residual activity (TTBK1 (human); compound 0.1 µM): 78%
residual activity (TTBK1 (human); compound 1.0 µM): 100%
residual activity (TTBK1 (human); compound 10.0 µM): 81%
residual activity (TEK (human); compound 0.1 µM): 71%
residual activity (TEK (human); compound 1.0 µM): 34%
residual activity (TEK (human); compound 10.0 µM): 9%
residual activity (PTK6 (human); compound 0.1 µM): 10%
residual activity (PTK6 (human); compound 1.0 µM): 4%
residual activity (PTK6 (human); compound 10.0 µM): 8%
residual activity ([1]; compound 0.1 µM): 96%
residual activity ([1]; compound 1.0 µM): 96%
residual activity ([1]; compound 10.0 µM): 82%
residual activity (ABL1 (human); compound 0.1 µM): 87%
residual activity (ABL1 (human); compound 1.0 µM): 80%
residual activity (ABL1 (human); compound 10.0 µM): 39%
residual activity (PRKCG (human); compound 0.1 µM): 85%
residual activity (PRKCG (human); compound 1.0 µM): 104%
residual activity (PRKCG (human); compound 10.0 µM): 99%
residual activity (ZAP70 (human); compound 0.1 µM): 93%
residual activity (ZAP70 (human); compound 1.0 µM): 107%
residual activity (ZAP70 (human); compound 10.0 µM): 101%
residual activity (TSSK1B (human); compound 0.1 µM): 105%
residual activity (TSSK1B (human); compound 1.0 µM): 108%
residual activity (TSSK1B (human); compound 10.0 µM): 68%
residual activity (TLK1 (human); compound 1.0 µM): 99%
residual activity (MAPK11 (human); compound 1.0 µM): 103%
residual activity (MAPK11 (human); compound 10.0 µM): 68%
residual activity (PAK6 (human); compound 0.1 µM): 95%
residual activity (PAK6 (human); compound 1.0 µM): 97%
residual activity (PAK6 (human); compound 10.0 µM): 82%
SMILES: C=CC(=O)N1CCC[C@@H](n2nc(-c3ccc(Oc4ccccc4)cc3)c3c(N)ncnc32)C1

SMILES: O=C(N[C@@H](COc1ccc2[nH]c(=O)[nH]c2c1)c1ccccc1)c1cccn(Cc2ccc(F)c(F)c2)c1=O
residual activity (EIF2AK3 (human); compound 0.1 µM): 107%
residual activity (EIF2AK3 (human); compound 1.0 µM): 104%
residual activity (EIF2AK3 (human); compound 10.0 µM): 96%
residual activity (STK16 (human); compound 0.1 µM): 101%
residual activity (STK16 (human); compound 1.0 µM): 118%
residual activity (STK16 (human); compound 10.0 µM): 106%
residual activity (IRAK1 (human); compound 0.1 µM): 117%
residual activity (IRAK1 (human); compound 1.0 µM): 118%
residual activity (IRAK1 (human); compound 10.0 µM): 108%
residual activity (STK33 (human); compound 0.1 µM): 92%
residual activity (STK33 (human); compound 1.0 µM): 107%
residual activity (STK33 (human); compound 10.0 µM): 79%
residual activity (TESK1 (human); compound 0.1 µM): 98%
residual activity (TESK1 (human); compound 1.0 µM): 88%
residual activity (TESK1 (human); compound 10.0 µM): 107%
residual activity (TTBK1 (human); compound 0.1 µM): 101%
residual activity (TTBK1 (human); compound 1.0 µM): 110%
residual activity (TTBK1 (human); compound 10.0 µM): 106%
residual activity (TEK (human); compound 0.1 µM): 104%
residual activity (TEK (human); compound 1.0 µM): 100%
residual activity (TEK (human); compound 10.0 µM): 96%
residual activity (PTK6 (human); compound 0.1 µM): 120%
residual activity (PTK6 (human); compound 1.0 µM): 129%
residual activity (PTK6 (human); compound 10.0 µM): 119%
residual activity ([1]; compound 0.1 µM): 97%
residual activity ([1]; compound 1.0 µM): 96%
residual activity ([1]; compound 10.0 µM): 83%
residual activity (ABL1 (human); compound 0.1 µM): 106%
residual activity (ABL1 (human); compound 1.0 µM): 105%
residual activity (ABL1 (human); compound 10.0 µM): 98%
residual activity (PRKCG (human); compound 0.1 µM): 91%
residual activity (PRKCG (human); compound 1.0 µM): 103%
residual activity (ZAP70 (human); compound 0.1 µM): 102%
residual activity (ZAP70 (human); compound 1.0 µM): 106%
residual activity (TSSK1B (human); compound 0.1 µM): 93%
residual activity (TSSK1B (human); compound 1.0 µM): 103%
residual activity (TSSK1B (human); compound 10.0 µM): 86%
residual activity (TLK1 (human); compound 0.1 µM): 97%
residual activity (TLK1 (human); compound 1.0 µM): 103%
residual activity (TLK1 (human); compound 10.0 µM): 99%
residual activity (MAPK11 (human); compound 0.1 µM): 100%
residual activity (MAPK11 (human); compound 1.0 µM): 110%
residual activity (MAPK11 (human); compound 10.0 µM): 115%
residual activity (PAK6 (human); compound 0.1 µM): 102%
residual activity (PAK6 (human); compound 1.0 µM): 102%
residual activity (PAK6 (human); compound 10.0 µM): 89%

residual activity (EIF2AK3 (human); compound 100.0 µM): 94%
residual activity (STK16 (human); compound 100.0 µM): 111%
residual activity (IRAK1 (human); compound 100.0 µM): 104%
residual activity (STK33 (human); compound 100.0 µM): 107%
residual activity (TESK1 (human); compound 100.0 µM): 73%
residual activity (TTBK1 (human); compound 100.0 µM): 94%
residual activity (TEK (human); compound 100.0 µM): 103%
residual activity (PTK6 (human); compound 100.0 µM): 100%
residual activity ([1]; compound 100.0 µM): 97%
residual activity (ABL1 (human); compound 100.0 µM): 92%
residual activity (PRKCG (human); compound 100.0 µM): 55%
residual activity (ZAP70 (human); compound 100.0 µM): 103%
residual activity (TSSK1B (human); compound 100.0 µM): 107%
residual activity (TLK1 (human); compound 100.0 µM): 108%
residual activity (MAPK11 (human); compound 100.0 µM): 58%
residual activity (PAK6 (human); compound 100.0 µM): 96%
SMILES: Cc1cc(N=Nc2cc(S(=O)(=O)O)c(C)cc2C)c(N)cc1O
